What all share (design): scale not given: the % may be the effect or the level left
Assay [1] addresses T1, Muscle, skeletal receptor tyrosine-protein kinase (Homo sapiens) (UniProt O15146).
T1 sequence (whole entry): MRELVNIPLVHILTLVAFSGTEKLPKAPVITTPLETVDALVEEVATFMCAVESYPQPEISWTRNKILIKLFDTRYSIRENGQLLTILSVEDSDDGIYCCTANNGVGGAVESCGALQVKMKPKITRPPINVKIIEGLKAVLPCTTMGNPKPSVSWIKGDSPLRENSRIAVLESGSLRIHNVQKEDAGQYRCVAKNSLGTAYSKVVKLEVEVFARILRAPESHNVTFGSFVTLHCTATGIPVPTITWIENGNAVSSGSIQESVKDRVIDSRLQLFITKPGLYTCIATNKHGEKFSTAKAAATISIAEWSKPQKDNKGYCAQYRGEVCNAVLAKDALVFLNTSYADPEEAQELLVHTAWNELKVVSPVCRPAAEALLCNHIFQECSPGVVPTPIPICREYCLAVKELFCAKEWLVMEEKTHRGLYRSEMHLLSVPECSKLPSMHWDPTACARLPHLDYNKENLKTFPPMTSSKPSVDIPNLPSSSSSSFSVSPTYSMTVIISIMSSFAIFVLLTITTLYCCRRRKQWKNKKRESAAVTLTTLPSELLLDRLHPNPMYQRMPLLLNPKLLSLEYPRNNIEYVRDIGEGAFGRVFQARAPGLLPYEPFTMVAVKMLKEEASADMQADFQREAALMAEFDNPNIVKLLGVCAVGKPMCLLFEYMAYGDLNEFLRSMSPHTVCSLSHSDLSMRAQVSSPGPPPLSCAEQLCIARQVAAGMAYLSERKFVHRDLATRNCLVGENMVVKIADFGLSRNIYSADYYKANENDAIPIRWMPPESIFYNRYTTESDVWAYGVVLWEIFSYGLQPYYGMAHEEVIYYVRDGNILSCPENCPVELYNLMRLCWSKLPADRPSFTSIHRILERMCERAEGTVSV
As to the kind of experiment: Inhibition of human MUSK assessed as enzyme activity at 1 uM using myelin basic protein as substrate preincubated for 20 mins followed by [gamma-33P]-ATP addition and measured after 120 mins by radiometric Hot-SpotSM Kinase assay relative to control.

Assay [2] addresses T2, Kinase suppressor of Ras 2 (Homo sapiens) (UniProt Q6VAB6).
T2 sequence (whole entry): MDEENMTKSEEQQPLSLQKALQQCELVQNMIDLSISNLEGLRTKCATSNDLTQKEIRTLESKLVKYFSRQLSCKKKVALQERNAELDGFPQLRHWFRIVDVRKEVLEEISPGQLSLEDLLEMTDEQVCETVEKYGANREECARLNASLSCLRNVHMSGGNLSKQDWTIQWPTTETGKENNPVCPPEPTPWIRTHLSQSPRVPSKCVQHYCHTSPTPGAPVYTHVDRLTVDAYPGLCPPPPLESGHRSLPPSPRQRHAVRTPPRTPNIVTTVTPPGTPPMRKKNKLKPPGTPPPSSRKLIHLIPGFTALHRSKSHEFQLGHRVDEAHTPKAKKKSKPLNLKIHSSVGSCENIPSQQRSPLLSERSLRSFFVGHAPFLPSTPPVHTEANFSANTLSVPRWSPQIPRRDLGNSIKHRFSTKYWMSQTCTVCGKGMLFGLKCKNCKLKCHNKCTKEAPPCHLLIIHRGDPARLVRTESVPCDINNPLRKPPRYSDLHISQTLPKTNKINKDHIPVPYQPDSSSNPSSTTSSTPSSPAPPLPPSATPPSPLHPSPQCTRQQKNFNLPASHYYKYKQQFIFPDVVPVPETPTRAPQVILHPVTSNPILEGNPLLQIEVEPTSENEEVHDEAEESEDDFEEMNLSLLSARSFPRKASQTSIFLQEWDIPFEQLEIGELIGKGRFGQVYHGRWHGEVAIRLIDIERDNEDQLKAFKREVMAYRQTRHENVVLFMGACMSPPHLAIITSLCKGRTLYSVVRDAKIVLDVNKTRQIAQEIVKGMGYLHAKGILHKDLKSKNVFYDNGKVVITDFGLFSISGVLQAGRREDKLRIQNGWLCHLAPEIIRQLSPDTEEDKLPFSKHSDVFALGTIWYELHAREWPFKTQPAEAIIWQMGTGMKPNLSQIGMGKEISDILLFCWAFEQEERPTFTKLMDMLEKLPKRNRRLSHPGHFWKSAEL
As to the kind of experiment: Inhibition of human KSR2 assessed as enzyme activity at 1 uM using KRREILSRRPSYR as substrate preincubated for 20 mins followed by [gamma-33P]-ATP addition and measured after 120 mins by radiometric Hot-SpotSM Kinase assay relative to control.

Assay [3] concerns the target Tyrosine-protein kinase Lyn (Homo sapiens) (UniProt P07948). As to the kind of experiment: Inhibition of human LYN B assessed as enzyme activity at 1 uM using poly[Glu:Tyr] (4:1) as substrate preincubated for 20 mins followed by [gamma-33P]-ATP addition and measured after 120 mins by radiometric Hot-SpotSM Kinase assay relative to control.
Assay [4] concerns the target T3, Dual specificity tyrosine-phosphorylation-regulated kinase 3 (Homo sapiens) (UniProt O43781).
T3 sequence (whole entry): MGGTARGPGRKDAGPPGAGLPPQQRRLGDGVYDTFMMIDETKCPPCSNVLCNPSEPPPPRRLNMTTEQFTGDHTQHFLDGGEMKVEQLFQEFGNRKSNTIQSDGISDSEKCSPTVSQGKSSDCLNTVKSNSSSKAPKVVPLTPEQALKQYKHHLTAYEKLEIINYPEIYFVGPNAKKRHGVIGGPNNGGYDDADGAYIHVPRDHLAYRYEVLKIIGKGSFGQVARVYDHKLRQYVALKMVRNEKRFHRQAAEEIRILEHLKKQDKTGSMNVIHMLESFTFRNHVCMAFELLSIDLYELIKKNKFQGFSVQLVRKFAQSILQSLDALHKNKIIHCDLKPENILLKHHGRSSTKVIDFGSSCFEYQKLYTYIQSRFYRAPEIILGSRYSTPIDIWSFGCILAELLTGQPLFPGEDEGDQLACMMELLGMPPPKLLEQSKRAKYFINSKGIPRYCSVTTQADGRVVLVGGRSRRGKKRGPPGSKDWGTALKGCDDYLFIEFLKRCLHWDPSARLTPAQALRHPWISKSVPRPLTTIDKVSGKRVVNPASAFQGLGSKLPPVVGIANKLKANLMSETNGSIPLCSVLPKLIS
As to the kind of experiment: Inhibition of human DYRK3 assessed as enzyme activity at 1 uM using RRRFRPASPLRGPPK as substrate preincubated for 20 mins followed by [gamma-33P]-ATP addition and measured after 120 mins by radiometric Hot-SpotSM Kinase assay relative to control.

Experimental findings from ChEMBL document CHEMBL5715954, “Silencing c-Myc translation as a therapeutic strategy through targeting PI3Kδ and CK1ε in hematological malignancies” (Blood, 2017) are described below.

Chain of Tyrosine-protein kinase Lyn (Homo sapiens) (P07948 2-512 limits assumed): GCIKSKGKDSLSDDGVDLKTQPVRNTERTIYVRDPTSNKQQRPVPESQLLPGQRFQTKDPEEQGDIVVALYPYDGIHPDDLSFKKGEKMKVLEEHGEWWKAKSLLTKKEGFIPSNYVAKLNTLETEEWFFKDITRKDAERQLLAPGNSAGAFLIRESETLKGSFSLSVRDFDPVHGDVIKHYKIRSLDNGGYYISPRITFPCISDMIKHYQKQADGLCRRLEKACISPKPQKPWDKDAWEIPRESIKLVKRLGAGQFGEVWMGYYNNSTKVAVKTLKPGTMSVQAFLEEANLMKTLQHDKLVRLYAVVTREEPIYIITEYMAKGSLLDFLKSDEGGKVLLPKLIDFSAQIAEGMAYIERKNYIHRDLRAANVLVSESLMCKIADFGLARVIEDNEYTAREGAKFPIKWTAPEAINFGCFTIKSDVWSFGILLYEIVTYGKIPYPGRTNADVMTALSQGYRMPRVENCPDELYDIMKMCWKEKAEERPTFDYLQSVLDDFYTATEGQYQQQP

`C[C@H](Nc1ncnc2nc[nH]c12)c1cc2cccc(Cl)c2c(=O)n1-c1ccccc1`: the Activity turned out to be 95.8% in assay [1], 91.4% in assay [2], 102% in assay [3] and 97.8% in assay [4].
The like results for `CC[C@H](Nc1ncnc2[nH]cnc12)c1nc2cccc(F)c2c(=O)n1-c1ccccc1` were, in that order, 94.4%, 95%, 97.8% and 96.9%.
The like results for `CC(C)Oc1ccc(-c2nn([C@@H](C)c3oc4ccc(F)cc4c(=O)c3-c3cccc(F)c3)c3ncnc(N)c23)cc1F` [UMBRALISIB] were, in that order, 97.5%, 96.2%, 104% and 96.9%.
